Data from patent US4548818A, “Composition and methods for the treatment of chronic obstructive airway disease and cardiac disease using 3-alkylxanthines” (priority 1978, dated 1985).
Where two headings read alike, the source gives them in different places.

Key:
Guinea-pig trachea = test: Isolated guinea-pig trachea (relaxation of carbacholine-contracted tracheal muscle); details: >1 more potent than theophylline; for Guinea-Pig trachea Potency rations of theophylline: Table II, molar potency ratio from EC50 values (50% maximum response), theophylline = 1 by definition, carbacholine 0.1 μg/ml; for Guinea-pig Tracheal Preparation Potency: Table III, potency ratio from EC50 values, theophyllin = 1 by definition
Protocol: Guinea-pigs of both sexes, weighing between 150 and 250 g, were killed by a blow on the head and bled. The trachea was removed and cut spirally yielding one or two preparations. The tracheal preparations were mounted in organ baths containing Krebs solution maintained at 37° C. and bubbled with carbogen (95% O2 +5% CO2). Isometric tension reflecting the activity in circular tracheal muscle was recorded by means of a force displacement transducer. Initial tension was set at 0.5 g which was the approximate basal tension kept during the experiment. Evaluation of relaxant effects was done when the preparations had contracted to a stable tension by the addition of carbacholine 0.1 μg/ml to the bath. […] After washing out the drugs the trachea resumed its basal tone and was left to stabilize for at least 15 min. before the next drug evaluation was performed. Between two evaluations of theophylline the effect of the test drug was examined and its EC50 value was compared with the mean of the previous and following EC50 values of theophylline.
(§1) The left column lists molar potency ratios for bronchodilatation between theophylline and various xanthine compounds. Toxic symptoms occuring before death in mice receiving constant rate infusion of drug i.v. are accounted for in the middle column. […] The far right column indicates cardiotonic activity as positive chronotropic potency.
The guinea-pig trachea were prepared as was discribed previously. Isomeric tension reflecting the activity in circular tracheal muscle was recorded by a force displacement transducer.

Guinea-pig heart = test: Isolated guinea-pig hearts (Langendorff), chronotropic potency; details: Table II; positive chronotropic potency; theophylline = 1
Protocol: From the bled guinea-pigs, the hearts were immediately removed and perfused with oxygenated Krebs solution at 37° according to Langendorff. The heart was mounted in a thermostatically controlled organ bath (25 ml) containing Krebs solution. A saline-filled, open-end polyethylene catheter was inserted into the right ventricle through the pulmonary artery. The catheter was fixed to the pulmonary artery by a ligature just above the valvular plane. It was connected to a pressure transducer (P23 AC), making it possible to record changes in intraventricular pressure. From these, the contraction frequency was obtained. Drugs were given as single bolus injections into the perfusion solution.
as §1

[1] = Description: as §1
[2] = Acute toxicity studies in mice (intravenous and oral); format: in vivo, male NMRI mice; details: i.v. or oral, observed 14 days
Protocol: Male NMRI mice, weighing 20-26 g. starved for 6 h were used. The compounds, dissolved in 0.5M NaOH and 0.85% NaCl-solution (pH 10.6-12.1) were administered as follows:
(a) intravenously, 0.1 ml/10 g at an injection rate of 0.3 ml per minute
At least seven dose levels, doses increasing in a geometric progression with a factor 1.2, were examined. Each dose was given to 5 animals. […] The position of extremities in dead animals indicated whether they had died in convulsions or not.

[3] = constant rate i.v. infusion, type of convulsion as in the effects column
[4] = toxic symptoms before death, constant rate i.v. infusion

Compound	Guinea-Pig trachea Potency rations of theophylline (Guinea-pig trachea)	Guinea-Pig heart Potency ratios of theophylline, Chronotrop (Guinea-pig heart)	Convulsion test mice i.v., Death ([1]; constant rate i.v. infusion) [mg/kg i.v.]	Guinea-pig Tracheal Preparation Potency (Guinea-pig trachea)	also measured
Cn1c(=O)c2c(ncn2C)n(C)c1=O [Caffeine, caffeine, reference compound]	1	0.5	391.7 ± 17.7	–	Convulsion test mice i.v., number of animals with convulsions / animals tested [1, 3]: 20/20; Convulsion test mice i.v., number of animals with convulsions / animals tested ([1]; constant rate i.v. infusion, type of convulsion as in the effects column, listed as caffeine): 20 out of 20; Convulsion test mice i.v., Effects [1, 4]: tonic conv.; Convulsion test mice i.v., Effects ([1]; toxic symptoms before death, constant rate i.v. infusion, listed as caffeine): consistently produced tonic convulsions
CC(C)(C)Cn1c(=O)[nH]c(=O)c2[nH]cnc21 [D 4034, 3,7-dihydro-3-(2,2-dimethylpropyl)-1H-purine-2,6-dione]	3	3	519.1 ± 16.6	3.0	–
Cc1nc2c([nH]1)c(=O)[nH]c(=O)n2CC(C)(C)C [D 4070, 3,7-dihydro-3-(2,2-dimethylpropyl)-8-methyl-1H-purine-2,6-dione]	1.8	1.5	693.3 ± 22.2	1.8	Convulsion test mice i.v., Effects ([1]; mouse, in vivo, iv): loss of balance
O=c1[nH]c(=O)n(CCO)c2nc[nH]c12 [D 4077, reference compound]	–	–	–	0.1	–
CC(O)Cn1c(=O)[nH]c(=O)c2[nH]cnc21 (stereo not drawn) [D 4083, reference compound]	–	–	–	0.1	–
Cc1nc2c([nH]1)c(=O)[nH]c(=O)n2CC(C)O (stereo not drawn) [D 4125, reference compound]	–	–	–	0.4	–
O=c1[nH]c(=O)n(C2CCCC2)c2nc[nH]c12 [D 4132, 3-cyclopentyl-3,7-dihydro-1H-purine-2,6-dione]	5.65	3.4	593 ± 21.9	–	–
Cc1nc2c([nH]1)c(=O)[nH]c(=O)n2C1CCCC1 [D 4134, 3-cyclopentyl-3,7-dihydro-8-methyl-1H-purine-2,6-dione]	5.85	–	–	–	–
Cc1nc2c([nH]1)c(=O)[nH]c(=O)n2CC1CCCCC1 [D 4137, 3,7-dihydro-8-methyl-3-cyclohexylmethyl-1H-purine-2,6-dione]	4	10	493.1 ± 19.4	–	–
O=c1[nH]c(=O)n(CC2CCCCC2)c2nc[nH]c12 [D 4138, 3,7-dihydro-3-cyclohexylmethyl-1H-purine-2,6-dione]	5	15	543.6 ± 31.7	–	–
O=c1[nH]c(=O)n(C2CC2)c2nc[nH]c12 [D 4161, 3-cyclopropyl-3,7-dihydro-1H-purine-2,6-dione]	0.5	–	1030 ± 39.3	–	Convulsion test mice i.v., number of animals with convulsions / animals tested ([1]; mouse, in vivo, iv): 1/10
O=c1[nH]c(=O)n(C2CCC2)c2nc[nH]c12 [D 4164, 3-cyclobutyl-3,7-dihydro-1H-purine-2,6-dione]	3.8	2.1	519.2 ± 16.86	–	Convulsion test mice i.v., number of animals with convulsions / animals tested ([1]; mouse, in vivo, iv): 3/10
Cc1nc2c([nH]1)c(=O)[nH]c(=O)n2CC(C)C [D 4169, 3,7-dihydro-8-methyl-3-(2-methylpropyl)-1H-purine-2,6-dione]	–	–	–	3.3	–
O=c1[nH]c(=O)n(CCCO)c2nc[nH]c12 [D 4184, reference compound]	–	–	–	0.1	–
Cn1c(=O)c2[nH]cnc2n(C)c1=O [Theophylline, theophylline, reference compound]	–	–	446.3 ± 9.6	1.0	Convulsion test mice i.v., number of animals with convulsions / animals tested [1, 3]: 30/30; Convulsion test mice i.v., number of animals with convulsions / animals tested ([1]; constant rate i.v. infusion, type of convulsion as in the effects column, listed as theophylline): 30 out of 30; Convulsion test mice i.v., Effects [1, 4]: tonic conv.; Convulsion test mice i.v., Effects ([1]; toxic symptoms before death, constant rate i.v. infusion, listed as theophylline): consistently produced tonic convulsions; Convulsive activity in acute toxicity studies [2]: repeatedly shown to occur
